# Source: US20100278837A1, “Compositions And Methods For Reducing Cancer And Inflammation” (The Regents of the University of California, priority 2009, published 2010)
# Like-named read-outs stand apart in the source and are kept apart here.
# What was measured:
# [1] = test system: CD11b+ cells adhesion to endothelium; assay: Adhesion of CD11b+ cells to endothelium (Example 1 adhesion assay); format: cell-based, murine; details: SDF-1α, TCM or IL-1β (and other chemoattractant) induced
# Description: TCM was prepared from serum-free media cultured on LLC cells for 18 h and filtered through 0.22 μm filters. 10^5 calcein-AM labelled human or murine CD11b+ cells in TCM or DMEM containing 200 ng/ml SDF-1α, IL-1β, IL-6, IL-8 or VEGF-A (R&D Systems) were incubated on HUVEC monolayers or on plastic plates coated with 5 μg/ml recombinant soluble VCAM-1 (R&D Systems). Adherent cells were quantified using a fluorescence activated plate reader (GeniosPro, TECAN). In some assays, cells were also incubated in 25 μg/ml anti-integrin α4β1 (PS2 for murine cells and HP2/1 for human cells, gifts from Biogen-Idec) and isotype control antibodies (IgG2bk for murine cells and IgG1 for human cells). In some studies, cells were incubated in 10 μM pan PI3K inhibitors […] or TG020, in PI3kinase α inhibitor PI3K75, PI3kinase γ/δ inhibitor TG115 and an inert control.
# [2] = test system: CD11b+ myeloid cell adhesion to VCAM-1; assay: Chemoattractant-stimulated CD11b+ myeloid cell adhesion to VCAM-1 / endothelial cells (Example 9 adhesion assay); format: cell-based, mouse; details: Mus musculus, Endothelial cell, read-out: IC50, CD11b+ cell adhesion to VCAM-1
# Description: 1×10^5 calcein-AM labelled human CD11b+ cells isolated from buffy coats from the San Diego Blood Bank or murine CD11b+ cells isolated from naïve (non-tumour bearing) or tumour-bearing mice were incubated on HUVEC monolayers or on plastic plates coated with 5 μg/ml recombinant soluble VCAM-1 or ICAM-1 (R&D Systems) for 30 minutes at 37° C. with humidity in the presence of LLC Tumour Conditioned Medium (TCM) or DMEM containing 200 ng/ml SDF1α, IL1β, IL6, TNFα or VEGF-A (R&D Systems). (SDF-1α and IL-1β were initially titrated to determine the minimum dose required to achieve near maximal stimulation of adhesion). TCM was prepared by incubating LLC cells in serum-free media for 18 h and filtering through 0.22 μm filters. After washing three times with warmed medium, adherent cells were quantified using a plate fluorimeter (GeniosPro, TECAN).
# In some adhesion assays, cells were also incubated in 25 μg/ml function-blocking anti-integrin α4β1 (rat anti-murine, PS2 or mouse anti-human, HP2/1, gifts from Biogen-Idec), rat-anti-αM (anti-CD11b, M1/70) and isotype control antibodies (rat IgG2κ or mouse IgG1) or with 0.1 nM-10 μM doses of the small molecule inhibitor of integrin α4, ELN476063 (IC50=10 nM), a gift from Elan^14.
# Additionally, labelled cells were incubated with HUVEC and rsVCAM coated plates in the presence of […] or SDF-1α and 1-10 μM inhibitors: pan-PI3 kinase inhibitors ([…], wortmannin), PI3-kinase α inhibitors (PI3K75, PIK2alpha, PI103), PI3-kinase β inhibitor (TGX221), PI3-kinase γ inhibitors (TG100-115, AS605240, AS604850), inert control, PLC inhibitor (U73122), geranylgeranyltransferase (Rap1-selective) inhibitors (GGTI-2147 and GGTI-298) or farnesyltransferase (Ras-selective) inhibitor (FTI-277), Akt inhibitors (Inhibitor X and peptide 18), mTOR inhibitor (rapamycin), ROCK inhibitor (Y27632), MEK inhibitor (PD98059), p38 inhibitor (SB202190), tyrosine kinase inhibitor (genestein) and PKA inhibitors (H89, KT5720). LY294002, wortmannin, genestein, U73122, GGTI-2147, GGTI-298, FTI-277, Y27632, PD98059, SB202190, H89 and KT5720 were from Calbiochem. PIK2alpha, PI103, AS605240, AS604850 and TGX221 were from Echelon. TG100-115 was prepared as described^25-26. To titrate the effect of various signalling protein inhibitors on myeloid cell adhesion stimulated by IL-1β or SDF-1α, cells were incubated in 1 nm to 100 μM PI3-kinase inhibitors TG00020 (a pan-PI3-kinase inhibitor), PI3-kinase α inhibitor (PI3Kalpha2) PI3-kinase β inhibitor (TGX221), PI3-kinase γ inhibitors (TG100-115, AS605240), an inert chemically matched control, farnesyltrasnferase inhibitors and geranylgeranyltransferase inhibitors. IC50s for GGTI and FTI were 1 μM. […] Adherent GFP+ cells were automatically quantified using MetaMorph software (Molecular Devices Software).
# PI3kinase = assay: In vivo PI3kinase activity assay (pAkt/Akt in peripheral blood mononuclear cells after i.v. dosing); set-up: species or system mice
# Description: (§1) Pharmacokinetic analysis of a 5 mg/kg bolus dose TG100-115 in Balb-c mice was accomplish by evaluating TG100-115 levels in serum at 5, 15, 30, 60 minute intervals as was previously performed for rats^25. In vivo activity assay of a 5 mg/kg bolus dose TG100-115 in Balb-c mice was accomplish by evaluating pAkt/Akt levels in peripheral blood cells in response to SDF-1α stimulation at 0.25, 0.5, 1, 2, 4, 6 and 12 hour intervals
# CD11b+ cells from C57BL/6 mice or PI3-kinase γ−/− mice were freshly isolated under serum free-conditions and were incubated for 30 min in serum-free media in the presence or absence of 1 μM TG100-115. CD11b+ cells were then stimulated with 200 ng/ml IL-1β or SDF-1α (R&D Systems) for 1-3 minutes and cells were solubilized with RIPA buffer. Alternatively, mice were injected intravenously with […] TG100-115 or a chemically similar inert control. Mononuclear peripheral blood leukocytes were isolated from 2 mice each at 0.5, 1, 2, 4, 6 and 12 hours after treatment. Cells were treated for 3 minutes with 200 ng/ml SDF and then solubilized with RIPA buffer. Lysates were electrophoresed and Western blotted. Akt phosphorylation was evaluated by immunoblotting with anti-phosphorylated Thr308-Akt specific antibody (C31 E5E, Cell Signalling). Blots were stripped and reprobed with anti-Akt (#9272, Cell Signaling). Films were scanned and quantified by densitometry.
# PyMT breast tumours = assay: Spontaneous PyMT breast tumour progression in treated mice; format: in vivo, FVB PyMT+ female mice
# Description: Alternatively, 6 week old PyMT+ female mice (with spontaneous breast tumours), were treated by subcutaneous injection with ELN476063 (3 mg/kg body weight), or saline every third day for three weeks (n=10). Tumours were excised, weighed and analyzed from 6 weeks at 9 weeks of age.
# PI3-kinase γ inhibitor studies: C57BL/6 mice were subcutaneously implanted on d1 with 5×10^5 LLC or by intradermal injection with 5×10^5 B16 melanoma cells. Mice were treated by i.p. injection with 2.5 mg/kg of PI3-kinase γ inhibitor (TG100-115) or with a chemically similar inert control (n=10) twice daily for fourteen days for a total daily dose of 5 mg/kg. In additional studies, C57BL/6 mice were subcutaneously implanted on d1 with 5×10^5 LLC and were treated by i.p. injection with 2.5 mg/kg, 0.25 mg/kg, or 0.025 mg/kg of PI3-kinase γ inhibitor (TG100-115), with 2.5 mg/kg of AS605240 or with a chemically similar inert control (n=10) twice daily for twenty-one days for a total daily dose of 5 mg/kg. Tumour volumes, weights and blood vessel densities, as well as myeloid cell densities were measured. Alternatively, 6 week old PyMT+ female mice (with spontaneous breast tumours), were treated by i.p. injection with 2.5 mg/kg PI3-kinase γ inhibitor (TG100-115) or inert control twice daily for three weeks (n=10). Tumours were excised, weighed and analyzed after 3 weeks. Alternatively, 6 week old FVB PyMT+ female mice were implanted with an Alzet osmotic pump with a 0.25 μl/h release rate containing 4.6 mg in 200 μl of TG100-115 or chemically similar, inert control (n=10). Mice were sacrificed at 9 weeks of age and tumours were analyzed.
# Inguinal mammary glands were fixed in Carnoy's fixative, dehydrated through a graded series of ethanol solutions and defatted in xylene. Following rehydration, the mammary epithelium was stained with carmine stain (Sigma Chemical, St Louis, Mo.) for 30 min. After removing excess stain by washing in water, samples were dehydrated and stored in methyl salicylate (Sigma Chemical, St Louis, Mo.).^31
# [3] = Pharmacokinetic analysis of TG100-115 in serum; format: in vivo, Balb/c mice; details: mouse
# Description: as §1
SMILES,CD11b+ cell adhesion to endothelium [1],IC50 ([2]; IL-1β stimulated) [µM],IC50 ([2]; SDF-1α stimulated) [µM],"time after dosing for which PI3kinase activity is inhibited (PI3kinase; 5 mg/kg i.v., PBMC stimulated 3 min with SDF-1α)","myeloid cell PI3kinase catalytic activity in vivo (PI3kinase; mouse, in vivo)",carcinoma area in mammary gland whole mounts (PyMT breast tumours),hyperplasia area in mammary gland whole mounts (PyMT breast tumours),normal tissue area in mammary gland whole mounts (PyMT breast tumours),"half-life ([3]; Balb/c, intravenous, 5 mg/kg, read-out: t1/2 in vivo (converted)) [min]","concentration at 1 h ([3]; iv, single i.v. dose of 5 mg/kg, Balb/c mice) [ng/mL]","half-life ([3]; iv, single i.v. dose of 5 mg/kg, Balb/c mice, read-out: half-life in mice in vivo (converted)) [min]"
c1cc(CN2CCCNCCNCCCNCC2)ccc1CN1CCCNCCNCCCNCC1 [AMD3100],"inhibited SDF-1α, and TCM-induced but not IL-1β induced adhesion",,,,,,,,,,
"Nc1nc(N)c2nc(-c3cccc(O)c3)c(-c3cccc(O)c3)nc2n1 [TG100-115, 3,3′-(2,4-diaminopteridine-6,7-diyl)diphenol]",,0.281,0.158,up to 12 hours,rapidly and sustainably inhibits myeloid cell PI3kinase catalytic activity in vivo,6+/−1.3%,27+/−5%,67+/−3%,13.2,7.1,13.2
